In ChEMBL document CHEMBL6153088, “Discovery of 1,4-Disubstituted Cyclohexene Analogues as Selective GPR119 Agonists for the Treatment of Type 2 Diabetes” (J Med Chem, 2025):
In brackets after ≈: the same amount, converted by molar mass. Each block holds one compound with its values, some of them ahead of it. Activity calls are given as the source filed them. The rule behind the calls is not given here.

How the values were obtained:
Mus musculus [1] = experiment: Anti-diabetic activity in male FATZO mouse assessed as reduction in blood glucose level by measuring AUC […] at 300 mg/kg once a day pre-administered with compound for 30 min followed by glucose bolus addition and measured upto 120 min by oral glucose tolerance test relative to control; type: functional; design: scale not given: the % may be the effect or the level left; conditions: time <= 150 min, 2.5 h
[2] = target: T1, Glucose-dependent insulinotropic receptor (Homo sapiens, UniProt Q8TDV5); experiment: Agonist activity at human GPR119 expressed in CHO cells assessed as cAMP level measured after 90 mins by HTRF based assay; type: functional, cell-based
T1 sequence (Q8TDV5 whole entry): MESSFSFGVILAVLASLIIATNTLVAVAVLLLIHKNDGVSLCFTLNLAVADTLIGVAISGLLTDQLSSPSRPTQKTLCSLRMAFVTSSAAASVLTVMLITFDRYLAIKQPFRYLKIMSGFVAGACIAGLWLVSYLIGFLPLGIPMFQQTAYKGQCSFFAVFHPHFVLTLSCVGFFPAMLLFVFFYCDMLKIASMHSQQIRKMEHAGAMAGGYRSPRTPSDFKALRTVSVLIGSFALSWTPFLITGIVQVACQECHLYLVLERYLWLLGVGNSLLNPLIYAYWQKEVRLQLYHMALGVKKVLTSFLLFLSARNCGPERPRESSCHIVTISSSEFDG

Mus musculus [3] = experiment: (§1) Anti-diabetic activity in overnight fasted male C57BL/6J mouse assessed as reduction in blood glucose level by measuring reduction in AUC […] at 20 mg/kg pre-administered with compound for 30 min followed by glucose bolus addition and measured upto 120 min by oral glucose tolerance test relative to control; type: functional; design: scale not given: the % may be the effect or the level left; conditions: time <= 150 min, 2.5 h
Mus musculus [4] = experiment: as §1, with “at 30” for “at 20”; type: functional; design: scale not given: the % may be the effect or the level left; conditions: time <= 150 min, 2.5 h
Mus musculus [5] = experiment: Anti-diabetic activity in overnight fasted male C57BL/6J mouse assessed as reduction in blood glucose level administered twice a day preincubated with compound for 30 min followed by glucose bolus addition and measured upto 120 min by oral glucose tolerance test; type: functional, organism-based; conditions: dose 3-30 mg/kg, time <= 150.0 min
[6] = target: T1, Glucose-dependent insulinotropic receptor; experiment: Agonist activity at human GPR119 expressed in CHO-K1 cells co-transfected with pcDNA3.1 assessed as increase in cAMP level; type: functional, cell-based
[7] = target: T1, Glucose-dependent insulinotropic receptor; experiment: Agonist activity at human GPR119; type: functional
[8] = Oral bioavailability in Sprague-Dawley rat at 30 mg/kg measured upto 48 hrs by LC-MS/MS analysis; type: ADME, organism-based; conditions: in vivo
Cytochrome P450 1A2 = target: T2, Cytochrome P450 1A2 (Homo sapiens, UniProt P05177); experiment: Inhibition of CYP1A2 in human liver microsomes using phenacetin as substrate incubated for 10 min in presence of NADPH by LC-MS/MS analysis; type: ADME, Microsome
T2 sequence (P05177 whole entry): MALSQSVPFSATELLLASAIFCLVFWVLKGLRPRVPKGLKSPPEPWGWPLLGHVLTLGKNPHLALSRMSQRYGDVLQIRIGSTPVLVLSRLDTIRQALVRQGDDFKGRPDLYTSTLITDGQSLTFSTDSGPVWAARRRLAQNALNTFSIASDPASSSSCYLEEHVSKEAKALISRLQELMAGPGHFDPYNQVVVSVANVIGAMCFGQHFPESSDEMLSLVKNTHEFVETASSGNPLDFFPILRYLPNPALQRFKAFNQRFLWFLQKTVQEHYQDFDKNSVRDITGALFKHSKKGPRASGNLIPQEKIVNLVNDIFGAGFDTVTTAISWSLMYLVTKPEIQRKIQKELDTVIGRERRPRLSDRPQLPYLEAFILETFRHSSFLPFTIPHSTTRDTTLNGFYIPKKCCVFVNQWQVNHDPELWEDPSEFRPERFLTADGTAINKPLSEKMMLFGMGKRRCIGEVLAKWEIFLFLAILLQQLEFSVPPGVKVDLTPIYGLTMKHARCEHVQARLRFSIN

Cytochrome P450 2C19 = Cytochrome P450 2C19 (Homo sapiens, UniProt P33261); experiment: Inhibition of CYP2C19 in human liver microsomes using mephenytoin as substrate incubated for 45 min in presence of NADPH by LC-MS/MS analysis; type: ADME, Microsome
[9] = Half-life in Beagle dog at 10 mg/kg, po measured upto 48 hrs by LC-MS/MS analysis; type: ADME, organism-based, Canis lupus familiaris; conditions: in vivo
Cytochrome P450 2D6 = Cytochrome P450 2D6 (Homo sapiens, UniProt P10635); experiment: Inhibition of CYP2D6 in human liver microsomes using dextromethorphan as substrate incubated for 20 min in presence of NADPH by LC-MS/MS analysis; type: ADME, Microsome
[10] = Induction of GLP-1 secretion in human NCI-H716 cells assessed as fold change at 30 uM measured after 1 hr by ELISA method; type: functional
Mus musculus [11] = experiment: Anti-diabetic activity in male FATZO mouse assessed as reduction in blood glucose level by measuring reduction in AUC […] at 30 mg/kg pre-administered with compound for 30 min followed by glucose bolus addition and measured upto 120 min by oral glucose tolerance test relative to control; type: functional; design: scale not given: the % may be the effect or the level left; conditions: time <= 150 min, 2.5 h
[12] = Half-life in Cynomolgus monkey at 30 mg/kg, po measured upto 48 hrs by LC-MS/MS analysis; type: ADME, organism-based, Macaca fascicularis; conditions: in vivo
[13] = Oral bioavailability in Cynomolgus monkey at 30 mg/kg measured upto 48 hrs by LC-MS/MS analysis; type: ADME, organism-based, Macaca fascicularis; conditions: in vivo
[14] = Microsomal stability in dog liver microsome assessed as compound remaining measured upto 45 min in presence of NADPH by LC-MS analysis; type: ADME, Canis lupus familiaris; conditions: liver microsomes, read-out: Stability
INS1 = experiment: Induction of insulin secretion in glucose treated INS1 cells at 0.1 to 1 uM measured after 1 hr by ELISA method; type: functional, cell-based; conditions: Rattus norvegicus, dose 0.1-1 µM
Rattus norvegicus [15] = experiment: Antidiabetic activity high-fat diet induced obese female Sprague-Dawley rat model assessed as reduction in fasting glucose levels at 3 to 30 mg/kg measured after 37 days by oral glucose tolerance test; type: functional, organism-based; conditions: dose 3-30 mg/kg, time 37.0 day
[16] = Kinetic solubility of the compound in water; type: physicochemical; conditions: read-out: Kinetic_solubility
Cytochrome P450 3A4 = Cytochrome P450 3A4 (Homo sapiens, UniProt P08684); experiment: Inhibition of CYP3A4 in human liver microsomes using midazolam as substrate incubated for 5 min in presence of NADPH by LC-MS/MS analysis; type: ADME, Microsome
[17] = Half-life in Sprague-Dawley rat at 30 mg/kg, po measured upto 48 hrs by LC-MS/MS analysis; type: ADME, organism-based; conditions: in vivo
[18] = Microsomal stability in human liver microsome assessed as compound remaining measured upto 45 min in presence of NADPH by LC-MS analysis; type: ADME; conditions: liver microsomes, read-out: Stability
[19] = target: Voltage-gated inwardly rectifying potassium channel KCNH2 (Homo sapiens, UniProt Q12809); experiment: Inhibition of human ERG incubated for 150 min by fluorescence polarization based microplate reader analysis; type: toxicity
Cytochrome P450 2C9 = Cytochrome P450 2C9 (Homo sapiens, UniProt P11712); experiment: Inhibition of CYP2C9 in human liver microsomes using diclofenac as substrate incubated for 10 min in presence of NADPH by LC-MS/MS analysis; type: ADME, Microsome
[20] = Microsomal stability in rat liver microsome assessed as compound remaining measured upto 45 min in presence of NADPH by LC-MS analysis; type: ADME; conditions: liver microsomes, read-out: Stability
[21] = Dissociation constant, pKa of compound; type: physicochemical
Rattus norvegicus [22] = experiment: Antidiabetic activity in high-fat diet induced obese female Sprague-Dawley rat model assessed as hypoglycemic effect at 3 to 30 mg/kg administered once daily for 5 weeks by oral glucose tolerance test; type: functional, organism-based; conditions: dose 3-30 mg/kg
Rattus norvegicus [23] = experiment: Antidiabetic activity high-fat diet induced female Sprague-Dawley rat model assessed as reduction in body weight at 3 to 30 mg/kg measured after 28 days by oral glucose tolerance test; type: functional, organism-based; conditions: dose 3-30 mg/kg, time 28.0 day
[24] = Lipophilicity, logP of compound; type: physicochemical; conditions: octanol/water
[25] = Induction of GLP-1 secretion in human NCI-H716 cells assessed as fold change at 10 uM measured after 1 hr by ELISA method; type: functional
Mus musculus [26] = experiment: Anti-diabetic activity in male db/db mouse assessed as reduction in blood glucose level administered twice a day preincubated with compound for 30 min followed by glucose bolus addition and measured upto 120 min by oral glucose tolerance test; type: functional, organism-based; conditions: dose 30-30 mg/kg, time <= 150.0 min

Sequence of Cytochrome P450 2C9 (P11712 whole entry): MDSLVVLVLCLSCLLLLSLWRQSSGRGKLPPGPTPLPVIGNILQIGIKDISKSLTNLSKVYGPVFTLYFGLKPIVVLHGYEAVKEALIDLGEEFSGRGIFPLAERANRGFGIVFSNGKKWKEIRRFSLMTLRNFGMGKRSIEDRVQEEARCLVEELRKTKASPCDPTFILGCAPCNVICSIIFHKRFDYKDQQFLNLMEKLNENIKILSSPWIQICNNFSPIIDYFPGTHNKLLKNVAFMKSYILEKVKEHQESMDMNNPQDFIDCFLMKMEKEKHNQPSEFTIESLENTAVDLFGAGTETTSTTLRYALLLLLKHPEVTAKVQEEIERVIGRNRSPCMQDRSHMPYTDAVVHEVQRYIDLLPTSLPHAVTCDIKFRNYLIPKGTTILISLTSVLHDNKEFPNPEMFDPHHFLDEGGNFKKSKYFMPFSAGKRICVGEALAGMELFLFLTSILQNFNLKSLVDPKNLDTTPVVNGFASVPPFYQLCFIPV
Sequence of Cytochrome P450 2D6 (P10635 whole entry): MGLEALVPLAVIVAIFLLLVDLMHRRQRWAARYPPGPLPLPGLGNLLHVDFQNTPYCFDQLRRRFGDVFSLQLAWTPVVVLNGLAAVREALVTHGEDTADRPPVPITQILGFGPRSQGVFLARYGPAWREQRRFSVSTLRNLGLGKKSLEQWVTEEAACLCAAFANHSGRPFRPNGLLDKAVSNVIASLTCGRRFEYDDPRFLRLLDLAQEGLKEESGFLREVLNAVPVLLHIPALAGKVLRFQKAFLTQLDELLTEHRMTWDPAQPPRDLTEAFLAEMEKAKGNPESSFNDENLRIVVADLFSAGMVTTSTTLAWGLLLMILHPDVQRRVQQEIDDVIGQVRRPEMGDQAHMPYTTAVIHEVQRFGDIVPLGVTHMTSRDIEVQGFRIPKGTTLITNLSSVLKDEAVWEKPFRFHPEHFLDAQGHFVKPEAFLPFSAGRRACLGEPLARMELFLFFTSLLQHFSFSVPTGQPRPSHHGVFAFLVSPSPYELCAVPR
Sequence of Cytochrome P450 2C19 (P33261 whole entry): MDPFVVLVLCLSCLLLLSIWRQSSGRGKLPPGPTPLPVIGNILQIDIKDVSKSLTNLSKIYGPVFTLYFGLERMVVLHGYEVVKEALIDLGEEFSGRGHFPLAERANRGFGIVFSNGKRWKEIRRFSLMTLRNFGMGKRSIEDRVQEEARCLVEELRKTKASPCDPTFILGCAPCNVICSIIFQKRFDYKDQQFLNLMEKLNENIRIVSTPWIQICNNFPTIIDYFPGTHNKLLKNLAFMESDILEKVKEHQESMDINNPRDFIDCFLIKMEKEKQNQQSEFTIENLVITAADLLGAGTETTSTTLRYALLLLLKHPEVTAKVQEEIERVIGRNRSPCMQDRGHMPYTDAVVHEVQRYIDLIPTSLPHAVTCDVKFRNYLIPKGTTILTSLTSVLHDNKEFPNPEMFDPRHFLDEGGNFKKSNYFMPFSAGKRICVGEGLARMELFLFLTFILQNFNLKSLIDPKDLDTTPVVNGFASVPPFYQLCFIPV
Sequence of Voltage-gated inwardly rectifying potassium channel KCNH2 (Q12809 whole entry): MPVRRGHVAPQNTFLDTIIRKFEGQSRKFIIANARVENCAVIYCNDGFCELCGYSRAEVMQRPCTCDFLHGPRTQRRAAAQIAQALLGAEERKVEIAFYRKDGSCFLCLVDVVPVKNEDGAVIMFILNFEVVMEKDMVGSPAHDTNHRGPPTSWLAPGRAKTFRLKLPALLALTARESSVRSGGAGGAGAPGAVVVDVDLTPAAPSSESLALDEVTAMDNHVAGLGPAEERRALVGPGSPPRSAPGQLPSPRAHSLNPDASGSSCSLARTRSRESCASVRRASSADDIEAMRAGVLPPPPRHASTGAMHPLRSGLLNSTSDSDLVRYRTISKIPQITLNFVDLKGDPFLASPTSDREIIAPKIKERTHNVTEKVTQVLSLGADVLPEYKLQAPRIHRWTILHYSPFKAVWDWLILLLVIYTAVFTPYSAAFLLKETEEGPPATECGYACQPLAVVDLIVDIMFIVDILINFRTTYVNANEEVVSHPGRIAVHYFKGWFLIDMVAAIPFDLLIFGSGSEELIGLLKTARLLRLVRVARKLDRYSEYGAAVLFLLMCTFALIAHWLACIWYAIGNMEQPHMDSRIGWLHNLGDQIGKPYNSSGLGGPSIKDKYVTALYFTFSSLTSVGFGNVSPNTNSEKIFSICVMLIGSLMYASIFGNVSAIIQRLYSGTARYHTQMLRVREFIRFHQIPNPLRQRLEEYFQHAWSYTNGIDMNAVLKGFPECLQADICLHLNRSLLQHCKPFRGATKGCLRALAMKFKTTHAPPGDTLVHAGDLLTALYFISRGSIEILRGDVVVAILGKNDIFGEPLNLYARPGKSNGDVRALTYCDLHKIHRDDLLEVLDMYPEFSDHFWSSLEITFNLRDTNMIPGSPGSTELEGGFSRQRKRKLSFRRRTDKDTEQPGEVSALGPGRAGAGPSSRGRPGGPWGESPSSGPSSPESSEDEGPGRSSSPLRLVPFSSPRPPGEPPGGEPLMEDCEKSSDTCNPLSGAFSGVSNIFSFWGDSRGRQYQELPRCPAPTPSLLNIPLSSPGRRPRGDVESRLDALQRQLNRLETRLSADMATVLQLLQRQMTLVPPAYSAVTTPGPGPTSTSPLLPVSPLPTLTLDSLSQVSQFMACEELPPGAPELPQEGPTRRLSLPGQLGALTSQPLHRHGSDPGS
Sequence of Cytochrome P450 3A4 (P08684 whole entry): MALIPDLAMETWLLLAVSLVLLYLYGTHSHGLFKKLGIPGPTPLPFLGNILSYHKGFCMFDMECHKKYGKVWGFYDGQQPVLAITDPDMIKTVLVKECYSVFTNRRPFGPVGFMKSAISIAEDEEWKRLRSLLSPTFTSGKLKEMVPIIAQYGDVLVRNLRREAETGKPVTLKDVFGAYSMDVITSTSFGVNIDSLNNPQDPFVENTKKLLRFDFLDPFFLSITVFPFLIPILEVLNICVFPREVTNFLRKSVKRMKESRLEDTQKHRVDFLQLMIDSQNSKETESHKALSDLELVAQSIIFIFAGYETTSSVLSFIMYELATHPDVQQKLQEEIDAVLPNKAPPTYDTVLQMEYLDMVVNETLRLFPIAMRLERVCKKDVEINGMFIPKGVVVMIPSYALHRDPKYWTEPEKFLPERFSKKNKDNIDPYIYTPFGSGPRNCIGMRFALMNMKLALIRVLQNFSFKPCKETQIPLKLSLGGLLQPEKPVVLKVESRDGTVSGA

SMILES: CN(C)C(=N)NC(=N)N [METFORMIN]
Activity (Mus musculus [1]): 25%

EC50 [2]: 27 nM
SMILES: CCc1cnc(N2CCC(COc3ccc(C4=CCC(C(=O)N5CCCC5)CC4)cc3)CC2)nc1 (stereo unspecified)
Activity (Mus musculus [3]): 15.9%

EC50 [2]: 12 nM
SMILES: CCc1cnc(N2CCC(COc3ccc(C4=CCC(C(=O)N5CCC(=O)C5)CC4)cc3)CC2)nc1 (stereo unspecified)
Activity (Mus musculus [3]): 12.7%

EC50 [2]: 40 nM
SMILES: CC(C)(C)OC(=O)N1CCC(COc2ccc(C3=CCC(C(=O)NC4CC4)CC3)cc2)CC1 (stereo unspecified)

EC50 [2]: 6.8 nM
SMILES: CCc1cnc(N2CCC(COc3ccc(C4=CCC(C(=O)N5CCC[C@@H]5CO)CC4)cc3)CC2)nc1 (stereo partly specified)
Activity (Mus musculus [3]): 16.6%
Activity (Mus musculus [4]): 25.8%
Activity (Mus musculus [5]): Dose-dependent-effect

EC50 [2]: 36 nM
SMILES: CCc1cnc(N2CCC(COc3ccc(C4=CCC(C(=O)N5CC[C@H](CO)C5)CC4)cc3)CC2)nc1 (stereo partly specified)
Activity (Mus musculus [3]): 13%

EC50 [6]: 51 nM
SMILES: CC[C@@H](Oc1ccc(C(=O)C2CC2)cc1)c1nc(-c2ccc(C(=O)N[C@H](C)CO)c(F)c2)no1 [FIRUGLIPEL]

EC50 [7]: 14 nM
SMILES: CCc1cnc(N2CCC(CCCOc3cc(F)c(-c4noc(C(C)C)n4)c(F)c3)CC2)nc1

EC50 [2]: 14 nM
SMILES: CN(CCO)C(=O)C1CC=C(c2ccc(OCC3CCN(C(=O)OC(C)(C)C)CC3)cc2)CC1 (stereo unspecified)
Activity (Mus musculus [3]): 6.8%

EC50 [2]: 53 nM
SMILES: CCOC(=O)C1CC=C(c2ccc(OCC3CCN(C(=O)OC(C)(C)C)CC3)cc2)CC1 (stereo unspecified)

EC50 [2]: 13 nM
SMILES: CCc1cnc(N2CCC(COc3ccc(C4=CCC(C(=O)N5CC[C@@H](O)C5)CC4)cc3)CC2)nc1 (stereo partly specified)
Activity (Mus musculus [3]): 13.5%

EC50 [2]: 31 nM
SMILES: CCc1cnc(N2CCC(COc3ccc(C4=CCC(C(=O)N5CCC[C@H]5CO)CC4)cc3)CC2)nc1 (stereo partly specified)
Activity (Mus musculus [3]): 9.8%

EC50 [2]: 55 nM
SMILES: CC(C)c1noc(N2CCC(COc3ccc(C4=CCC(C(=O)N5CCCC5)CC4)cc3)CC2)n1 (stereo unspecified)
Activity (Mus musculus [3]): 5.9%

bioavailability [8]: 28.3%
IC50 (Cytochrome P450 1A2): > 10000 nM
IC50 (Cytochrome P450 2C19): > 10000 nM
half-life [9]: 17.2 h
IC50 (Cytochrome P450 2D6): > 10000 nM
EC50 [2]: 3.8 nM
half-life [12]: 11.7 h
bioavailability [13]: 31.6%
remaining at 0.75 h [14]: 62.4%
solubility kinetic [16]: 176 µM (≈ 88.8 µg/mL)
IC50 (Cytochrome P450 3A4): > 10000 nM
half-life [17]: 5.4 h
remaining at 0.75 h [18]: 53.8%
IC50 (Cytochrome P450 2C9): > 10000 nM
remaining at 0.75 h [20]: 48.3%
pKa [21]: 2.49
logP [24]: 3.45
SMILES: CCc1cnc(N2CCC(COc3ccc(C4=CC[C@H](C(=O)N5CCC[C@@H]5CO)CC4)cc3)CC2)nc1
fold change (FC) [10]: 1.8
Activity (Mus musculus [11]): 22.9%
Activity (INS1): Active
Activity (Rattus norvegicus [15]): Active
IC50 [19]: > 100000 nM
Activity (Rattus norvegicus [22]): Active; Strong Glucose Tolerant Ability
Activity (Rattus norvegicus [23]): Active; Significant Reduction In Body Weight
fold change (FC) [25]: 1.7
Activity (Mus musculus [26]): Dose-dependent-effect; Superior Compared To Sitagliptin

EC50 [2]: 70 nM
SMILES: CCc1cnc(N2CCC(COc3ccc(C4=CCC(C(=O)N5CC(O)C5)CC4)cc3)CC2)nc1 (stereo unspecified)
Activity (Mus musculus [3]): 12.3%
